Laboratory results from patent publication US20240368104A1, “Novel Dialkoxynaphtho[2,3-C]Furan-1(3H)-One Derivatives and Pharmaceutical Composition For Preventing or Treating Respiratory Disease or SARS-COV-2 Infection Disease, Comprising Same” (priority 2021, published 2024).
Like-named read-outs stand apart in the source and are kept apart here.

What was measured:
[1] = tested on: SARS-COV-2; assay: microbe, parasite or virus in culture; assay type: cell-based; design: SI (Selectivity Index, CC50/IC50): unit not given here; conditions: for SI (Selectivity Index, CC50/IC50): SARS-COV-2, values >50 assumed to be 50; for IC50: read-out: SARS-COV-2 inhibition (IC50)
[2] = in vitro; conditions: African green monkey
[3] = Severe acute respiratory syndrome coronavirus 2, Vero, 24 h
[4] = Severe acute respiratory syndrome coronavirus 2, Vero cells, 24 hours infection

SMILES	SI (Selectivity Index, CC50/IC50) [1]	IC50 [1, 3] [µM]	CC50 [2] [µM]	IC50 [1, 4] [µM]
COc1cc2cc3c(c(-c4ccc(N[C@H]5CCc6c(cccc6OC)C5)nc4)c2cc1OC)C(=O)OC3.Cl [Example 172, (S)-6,7-dimethoxy-9-(6-((5-methoxy-1,2,3,4-tetrahydronaphthalen-2-yl)amino)pyridin-3-yl)naphtho[2,3-c]furan-1(3H)-one]	1.0	> 50	> 50	
CCNc1cccc(-c2c3c(cc4cc(OC)c(OC)cc24)COC3=O)c1 [Example 258, 9-(3-(ethylamino)phenyl)-6,7-dimethoxynaphtho[2,3-c]furan-1(3H)-one]	3.04		> 50	16.5
COc1cc2cc3c(c(-c4cccc(N5CCOCC5)c4)c2cc1OC)C(=O)OC3 [Example 244, 6,7-dimethoxy-9-(3-morpholinophenyl)naphtho[2,3-c]furan-1(3H)-one]	1.00		> 50	> 50
COc1cc2cc3c(c(N4CCc5sccc5C4)c2cc1OC)C(=O)OC3 [Example 3, 9-(6,7-dihydrothieno[3,2-c]pyridin-5 (4H)-yl)-6,7-dimethoxynaphtho[2,3-c]furan-1(3H)-one]	8.48		> 50	5.89
COc1cc2cc3c(c(-c4ccc(N(C)C(=O)c5ccc(Cl)nc5)nc4)c2cc1OC)C(=O)OC3.Cl [Example 234, 6-chloro-N-(5-(6,7-dimethoxy-3-oxo-1,3-dihydronaphtho[2,3-c]furan-4-yl)pyridin-2-yl)-N-methylnicotinamide]	1.00	> 50	> 50	
COC[C@@H]1CCCN1c1ncc(-c2c3c(cc4cc(OC)c(OC)cc24)COC3=O)cn1.Cl [Example 97, (S)-6,7-dimethoxy-9-(2-(2-(methoxymethyl)pyrrolidin-1-yl)pyrimidin-5-yl)naphtho[2,3-c]furan-1(3H)-one hydrochloride]	8.74	5.72	> 50	
COc1cc2cc3c(c(-c4ccc(N(C)c5ccccc5)nc4)c2cc1OC)C(=O)OC3 [Example 222, 6,7-dimethoxy-9-(6-(methyl(phenyl)amino)pyridin-3-yl)naphtho[2,3-c]furan-1(3H)-one]	162.21		> 50	0.31
COc1cc2cc3c(c(-c4cnc(N(C)C)cn4)c2cc1OC)C(=O)OC3 [Example 31, 9-(5-(dimethylamino)pyrazin-2-yl)-6,7-dimethoxynaphtho[2,3-c]furan-1(3H)-one]	11.86		> 50	4.22
COc1cc2cc3c(c(-c4ccc(N5CCC(Cl)CC5)nc4)c2cc1OC)C(=O)OC3 [Example 142, 9-(6-(4-chloropiperidin-1-yl)pyridin-3-yl)-6,7-dimethoxynaphtho[2,3-c]furan-1(3H)-one]	25.00		> 50	2
CCOP(=O)(OCC)Oc1cc2c(cc1-c1c3c(cc4cc(OC)c(OC)cc14)COC3=O)OCO2 [Example 277, 6-(6,7-dimethoxy-3-oxo-1,3-dihydronaphtho[2,3-c]furan-4-yl)benzo[d][1,3]dioxol-5-yl diethyl phosphate]	1.00	> 50	> 50	
COc1cc2cc3c(c(-c4ccnc(F)c4)c2cc1OC)C(=O)OC3 [Example 186, 9-(2-fluoropyridin-4-yl)-6,7-dimethoxynaphtho[2,3-c]furan-1(3H)-one]	1.0		> 50	> 50
COc1cc2cc3c(c(-c4ccc(N5CCOCC5)nc4)c2cc1OC)C(=O)OC3 [Example 124, 6,7-dimethoxy-9-(6-morpholinopyridin-3-yl)naphtho[2,3-c]furan-1(3H)-one]	176.18		> 50	0.28
COc1cc2cc3c(c(-c4cnc(N5CC(C)(C)OC(C)(C)C5)nc4)c2cc1OC)C(=O)OC3 [Example 114, 6,7-dimethoxy-9-(2-(2,2,6,6-tetramethylmorpholino)pyrimidin-5-yl)naphtho[2,3-c]furan-1(3H)-one]	1.0		> 50	> 50
COCCN(C)c1ccc(-c2c3c(cc4cc(OC)c(OC)cc24)COC3=O)cn1.Cl [Example 168, 6,7-dimethoxy-9-(6-((2-methoxyethyl)(methyl)amino)pyridin-3-yl)naphtho[2,3-c]furan-1(3H)-one hydrochloride]	42.46	1.18	> 50	
COCCN(C)c1ccc(-c2c3c(cc4cc(OC)c(OC)cc24)COC3=O)cc1 [Example 256, 6,7-dimethoxy-9-(4-((2-methoxyethyl)(methyl)amino)phenyl)naphtho[2,3-c]furan-1(3H)-one]	82.38		> 50	0.61
COc1cc2cc3c(c(-c4ccc(N5CCC6(CC5)OCCO6)nc4)c2cc1OC)C(=O)OC3 [Example 166, 9-(6-(1,4-dioxa-8-azaspiro[4.5]decan-8-yl)pyridin-3-yl)-6,7-dimethoxynaphtho[2,3-c]furan-1(3H)-one]	18.50		> 50	2.7
COc1cc2cc3c(c(-c4cccc5cccnc45)c2cc1OC)C(=O)OC3 [Example 125, 6,7-dimethoxy-9-(quinolin-8-yl)naphtho[2,3-c]furan-1(3H)-one]	1.0		> 50	> 50
COc1cc2cc3c(c(-c4ccc(F)nc4)c2cc1OC)C(=O)OC3 [Example 35, 9-(6-fluoropyridin-3-yl)-6,7-dimethoxynaphtho[2,3-c]furan-1(3H)-one]	1.00		> 50	> 50
COc1cc2cc3c(c(-c4ccc(N(C)C(C)=O)nc4)c2cc1OC)C(=O)OC3 [Example 230, N-(5-(6,7-dimethoxy-3-oxo-1,3-dihydronaphtho[2,3-c]furan-4-yl)pyridin-2-yl)-N-methylacetamide]	2.45		> 50	20.4
COc1cc2cc3c(c(-c4cc5c(cc4OP(=O)(NC(C)C)c4ccccc4)OCO5)c2cc1OC)C(=O)OC3 (stereo not drawn) [Example 281, 6-(6,7-dimethoxy-3-oxo-1,3-dihydronaphtho[2,3-c]furan-4-yl)benzo[d][1,3]dioxol-5-yl N-isopropyl-P-phenylphosphoramidate]	3.45	14.5	> 50	
CCN(C)c1ccc(-c2c3c(cc4cc(OC)c(OC)cc24)COC3=O)cn1 [Example 178, 9-(6-(ethyl(methyl)amino)pyridin-3-yl)-6,7-dimethoxynaphtho[2,3-c]furan-1(3H)-one]	1323.43		> 50	0.04
COc1cc2cc3c(c(-c4ccc(N5CCOCC5)cc4)c2cc1OC)C(=O)OC3.Cl [Example 245, 6,7-dimethoxy-9-(4-morpholinophenyl)naphtho[2,3-c]furan-1(3H)-one]	1.00	> 50	> 50	
COc1ccc(CN(C)c2ccc(-c3c4c(cc5cc(OC)c(OC)cc35)COC4=O)cn2)c(OC)c1.Cl [Example 232, 9-(6-((2,4-dimethoxybenzyl)(methyl)amino)pyridin-3-yl)-6,7-dimethoxynaphtho[2,3-c]furan-1(3H)-one]	15.36	3.25	> 50	
COc1cc2c(OC)c3c(c(-c4ccc(-n5cc(C#N)c(N(C)C)n5)nc4)c2cc1OC)COC3=O [Example 264, 3-(dimethylamino)-1-(5-(6,7,9-trimethoxy-1-oxo-1,3-dihydronaphtho[2,3-c]furan-4-yl)pyridin-2-yl)-1H-pyrazol-4-carbonitrile]	1.00		> 50	> 50
COc1cc2cc3c(c(-c4ccnc5c(OC)cccc45)c2cc1OC)C(=O)OC3 [Example 140, 6,7-dimethoxy-9-(8-methoxyquinolin-4-yl)naphtho[2,3-c]furan-1(3H)-one]	1.0		> 50	> 50
COc1cc2c(OC)c3c(c(-c4ccc(N(C)[C@H]5CCc6c(cccc6OC)C5)nc4)c2cc1OC)COC3=O [Example 266, (S)-6,7,9-trimethoxy-4-(6-((5-methoxy-1,2,3,4-tetrahydronaphthalen-2-yl)(methyl)amino)pyridin-3-yl)naphtho[2,3-c]furan-1(3H)-one]	1.00		> 50	> 50
COc1cc2cccc(-c3c4c(cc5cc(OC)c(OC)cc35)COC4=O)c2cn1 [Example 133, 6,7-dimethoxy-9-(3-methoxyisoquinolin-8-yl)naphtho[2,3-c]furan-1(3H)-one]	1.0		> 50	> 50
COc1cc2cc3c(c(-c4ccc5c(O)cc(C)nc5c4C)c2cc1OC)C(=O)OC3 [Example 146, 9-(4-hydroxy-2,8-dimethylquinolin-7-yl)-6,7-dimethoxynaphtho[2,3-c]furan-1(3H)-one]	1.0		> 50	> 50
COc1cc2cc3c(c(-c4ccc(N(C)c5nc6ccccc6s5)nc4)c2cc1OC)C(=O)OC3.Cl [Example 225, 9-(6-(benzo[d]thiazol-2-yl(methyl)amino)pyridin-3-yl)-6,7-dimethoxynaphtho[2,3-c]furan-1(3H)-one]	0.65	> 50	32.4	
COc1cc2cc3c(c(-c4cc5c(cc4OC(C)=O)OCO5)c2cc1OC)C(=O)OC3 [Example 274, 6-(6,7-dimethoxy-3-oxo-1,3-dihydronaphtho[2,3-c]furan-4-yl)benzo[d][1,3]dioxol-5-yl acetate]	19.61		> 50	2.55
